Reference: article PMC8550792, “Evolution of kinase polypharmacology across HSP90 drug discovery” (Cell Chemical Biology, 2021)

Experiments:
Experiment in all cases: biochemical
Assay type in all cases: biochemical
[1] = molecular target: T1, 382 unique human kinases (Homo sapiens, UniProt P43403, Y319F); details: ZAP70 (Y319F), 10 uM; for remaining activity at 10 µM: read-out: % Enzyme Activity (relative to DMSO controls)
T1 construct: purchased Reaction Biology (HotSpot contract assay)
T1 sequence (P43403 1-619 Y319F): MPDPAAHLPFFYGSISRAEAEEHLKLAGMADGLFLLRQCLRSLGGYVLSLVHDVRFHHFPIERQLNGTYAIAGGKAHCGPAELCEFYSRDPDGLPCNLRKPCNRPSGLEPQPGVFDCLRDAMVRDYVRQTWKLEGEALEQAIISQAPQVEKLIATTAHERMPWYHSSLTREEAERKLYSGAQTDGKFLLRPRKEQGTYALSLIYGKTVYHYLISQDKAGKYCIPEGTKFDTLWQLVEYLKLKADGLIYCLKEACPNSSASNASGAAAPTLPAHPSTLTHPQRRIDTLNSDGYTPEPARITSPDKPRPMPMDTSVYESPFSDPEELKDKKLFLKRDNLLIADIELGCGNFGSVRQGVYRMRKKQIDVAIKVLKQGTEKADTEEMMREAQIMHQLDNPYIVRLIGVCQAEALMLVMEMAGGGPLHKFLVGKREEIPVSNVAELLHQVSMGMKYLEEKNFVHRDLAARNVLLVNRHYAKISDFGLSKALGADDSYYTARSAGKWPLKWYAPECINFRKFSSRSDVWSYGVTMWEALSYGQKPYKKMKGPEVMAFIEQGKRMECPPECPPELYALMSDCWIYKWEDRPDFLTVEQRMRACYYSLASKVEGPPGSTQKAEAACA

[2] = molecular target: T2, 382 unique human kinases (Homo sapiens, UniProt Q9Y2U5); details: MEKK2, compound at 10 uM, duplicate values; for remaining activity at 10 µM: read-out: % Enzyme Activity (relative to DMSO controls)
T2 construct: purchased Reaction Biology (HotSpot contract assay)
T2 sequence (Q9Y2U5 1-619): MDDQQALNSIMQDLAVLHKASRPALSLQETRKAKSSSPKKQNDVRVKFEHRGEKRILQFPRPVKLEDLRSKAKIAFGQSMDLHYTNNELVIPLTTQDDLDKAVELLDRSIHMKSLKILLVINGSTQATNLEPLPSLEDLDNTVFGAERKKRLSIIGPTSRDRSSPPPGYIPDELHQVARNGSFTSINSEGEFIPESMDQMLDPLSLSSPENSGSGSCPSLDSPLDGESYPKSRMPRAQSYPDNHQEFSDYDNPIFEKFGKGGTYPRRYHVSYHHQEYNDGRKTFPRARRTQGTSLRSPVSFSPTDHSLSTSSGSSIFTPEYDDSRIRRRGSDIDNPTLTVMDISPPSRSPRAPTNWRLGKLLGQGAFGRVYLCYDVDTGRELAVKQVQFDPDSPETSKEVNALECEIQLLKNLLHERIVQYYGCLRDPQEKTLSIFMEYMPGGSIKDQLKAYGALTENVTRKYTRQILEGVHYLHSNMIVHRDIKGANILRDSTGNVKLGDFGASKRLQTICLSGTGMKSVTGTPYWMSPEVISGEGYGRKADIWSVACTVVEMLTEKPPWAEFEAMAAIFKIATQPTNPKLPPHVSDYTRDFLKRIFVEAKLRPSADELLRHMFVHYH

[3] = molecular target: T3, 382 unique human kinases (Homo sapiens, UniProt P11362, V561M); details: FGFR1 (V561M), 10 uM; for remaining activity at 10 µM: read-out: % Enzyme Activity (relative to DMSO controls)
T3 construct: purchased Reaction Biology (HotSpot contract assay)

[4] = molecular target: T4, 382 unique human kinases (Homo sapiens, UniProt P36888, D835Y); details: FLT3 (D835Y), [ATP] 20 µM, compound 10 uM; for remaining activity at 10 µM: read-out: % Enzyme Activity (relative to DMSO controls)
T4 construct: purchased Reaction Biology (HotSpot contract assay)
T4 sequence (P36888 27-993 D835Y): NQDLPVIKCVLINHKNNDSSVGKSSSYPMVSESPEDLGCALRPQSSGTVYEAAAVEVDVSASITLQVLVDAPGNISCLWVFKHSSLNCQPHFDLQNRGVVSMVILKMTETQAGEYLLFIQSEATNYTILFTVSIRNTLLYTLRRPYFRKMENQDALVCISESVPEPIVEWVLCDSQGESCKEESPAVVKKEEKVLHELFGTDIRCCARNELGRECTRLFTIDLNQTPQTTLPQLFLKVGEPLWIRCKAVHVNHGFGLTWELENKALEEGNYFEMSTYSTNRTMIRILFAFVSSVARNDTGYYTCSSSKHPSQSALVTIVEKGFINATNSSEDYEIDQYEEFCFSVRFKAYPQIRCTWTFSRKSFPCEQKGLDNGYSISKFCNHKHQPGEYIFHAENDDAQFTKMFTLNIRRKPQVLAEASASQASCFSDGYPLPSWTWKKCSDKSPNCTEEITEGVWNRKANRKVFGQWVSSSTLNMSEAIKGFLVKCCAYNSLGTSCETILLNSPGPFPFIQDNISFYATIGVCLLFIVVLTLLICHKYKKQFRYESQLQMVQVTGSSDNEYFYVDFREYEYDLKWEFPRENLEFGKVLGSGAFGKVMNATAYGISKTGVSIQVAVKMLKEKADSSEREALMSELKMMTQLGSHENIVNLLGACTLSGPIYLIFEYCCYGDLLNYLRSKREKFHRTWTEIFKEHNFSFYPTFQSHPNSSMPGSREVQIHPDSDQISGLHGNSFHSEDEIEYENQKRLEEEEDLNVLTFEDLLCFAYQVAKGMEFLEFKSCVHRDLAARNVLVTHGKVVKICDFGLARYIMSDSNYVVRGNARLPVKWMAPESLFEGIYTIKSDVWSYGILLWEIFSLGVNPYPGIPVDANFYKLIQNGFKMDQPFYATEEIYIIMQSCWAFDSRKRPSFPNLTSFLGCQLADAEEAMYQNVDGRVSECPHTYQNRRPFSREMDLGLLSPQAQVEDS

T3 sequence (P11362 22-822 V561M): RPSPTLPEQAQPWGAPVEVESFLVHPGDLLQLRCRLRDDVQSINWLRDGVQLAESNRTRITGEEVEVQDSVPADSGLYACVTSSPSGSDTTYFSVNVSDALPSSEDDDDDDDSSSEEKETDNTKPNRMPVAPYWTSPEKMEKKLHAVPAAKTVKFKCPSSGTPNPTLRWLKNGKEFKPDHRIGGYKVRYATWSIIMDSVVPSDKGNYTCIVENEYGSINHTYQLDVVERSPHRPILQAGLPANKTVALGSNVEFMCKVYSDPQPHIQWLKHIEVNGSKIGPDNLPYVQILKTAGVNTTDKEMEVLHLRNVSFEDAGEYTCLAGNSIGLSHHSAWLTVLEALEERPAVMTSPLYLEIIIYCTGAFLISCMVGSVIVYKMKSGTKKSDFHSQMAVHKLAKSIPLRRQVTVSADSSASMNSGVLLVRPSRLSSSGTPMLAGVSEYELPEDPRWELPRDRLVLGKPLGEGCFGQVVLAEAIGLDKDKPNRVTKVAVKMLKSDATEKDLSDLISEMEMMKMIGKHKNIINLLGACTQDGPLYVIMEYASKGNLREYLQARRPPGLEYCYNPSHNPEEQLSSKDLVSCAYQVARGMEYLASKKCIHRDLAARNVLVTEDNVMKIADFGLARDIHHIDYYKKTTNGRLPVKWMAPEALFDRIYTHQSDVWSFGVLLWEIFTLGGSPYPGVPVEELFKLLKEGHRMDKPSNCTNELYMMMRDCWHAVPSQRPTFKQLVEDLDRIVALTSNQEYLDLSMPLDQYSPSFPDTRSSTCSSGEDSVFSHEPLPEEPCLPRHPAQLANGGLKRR

Question: With `CC(C)c1cc(-c2n[nH]c(=O)n2-c2ccc3c(ccn3C)c2)c(O)cc1O` [Ganetespib (STA9090)] as the compound, how does the remaining activity at 10 µM [1] read?
Answer: 88.4%

Question: And the remaining activity at 10 µM [2]?
Answer: 109%

Question: With `CCNC(=O)c1noc(-c2cc(C(C)C)c(O)cc2O)c1-c1ccc(CN2CCOCC2)cc1` [Luminespib] as the compound, how does the “% Enzyme Activity (relative to DMSO controls)” value [3] read?
Answer: 101.68%

Question: And the remaining activity at 10 µM [3]?
Answer: 103%

Question: And the “% Enzyme Activity (relative to DMSO controls)” value [4]?
Answer: 78.51%

Question: What about the remaining activity at 10 µM [4] of the same compound?
Answer: 78.6%

Question: What does the source list for `CCNC(=O)c1noc(-c2cc(C(C)C)c(O)cc2O)c1-c1ccc(CN2CCOCC2)cc1` [Luminespib (AUY-922)]?
Answer: % Enzyme Activity (relative to DMSO controls) [1]: 63.89%; remaining activity at 10 µM [1]: 68.9%; % Enzyme Activity (relative to DMSO controls) [2]: 118.79%; remaining activity at 10 µM [2]: 123%

Question: How did the remaining activity at 10 µM [3] turn out when `CC(C)c1cc(-c2n[nH]c(=O)n2-c2ccc3c(ccn3C)c2)c(O)cc1O` [Ganetespib] was run?
Answer: 97.7%

Question: What about the remaining activity at 10 µM [4] of the same compound?
Answer: 18.6%
